Test results taken from patent publication US8772355B2, “Stealth polymeric particles for delivery of bioactive or diagnostic agents” (Howard University, priority 2010, dated 2014).

Assay: Preliminary solubility tests
Type: physicochemical
Settings: preliminary solubility tests for both compounds

CC(=O)N(C(C)=O)C1=C(Cl)C(=O)c2ccccc2C1=O [Zapp88, 2-chloro-3-diacetylamino-1,4-naphthoquinone]
hydrophobicity compared with paclitaxel: more hydrophobic
